Patent US20230088528A1, “USE OF LIPID IN PREPARATION OF NUCLEIC ACID DELIVERY REAGENT AND RELATED PRODUCT THEREOF” (INSTITUTE OF BASIC MEDICAL SCIENCES CHINESE ACADEMY OF …, priority 2019, published 2023)

Experiment: In vivo delivery of lipid-nucleic acid mixture (PGY-sRNA-26) by gavage, relative intake in blood and tissues by RT-qPCR
Parameters: species or system C57BL/6 male mice
Settings: for oral delivery of sRNA single-chain nucleic acid into the blood, and lung, kidney, spleen, and heart tissues of mice / oral delivery of sRNA single-chain nucleic acid into the blood, and lung, kidney, spleen, heart, and intestinal tissue of mice: 100 μg lipid:1 nmol PGY-sRNA-26 per mouse, 12 hrs after gavage, vs free intake group; for number of organs into which nucleic acid is significantly delivered: among the 6 organs in the experiments
Method: The concentration of a lipid solution in chloroform was 10 mg/ml (stock solution), and grouping was performed according to the lipid compound number.
1 nmol of small RNA (as shown in Table 2) was dissolved in 400 μl of DEPC-treated water in a glass tube, and 10 μl of a corresponding lipid stock solution was added, to give a system containing 100 μg of lipid. The system was well mixed, heated for 15 min in a water bath at 90° C., and then naturally cooled, to obtain a lipid-nucleic acid mixture of the lipid and small RNA.
The C57BL/6 male mice used in the experiment were purchased from Beijing Vital River Laboratory Animal Technology Co., Ltd., about 6 weeks old, and weighed 20-24 g. They were kept in an SPF animal room of the Animal Center of the Institute of Basic Medical Sciences, Chinese Academy of Medical Sciences. The mice were fasted for 12 hrs before gavage.
The lipid-nucleic acid mixture was prepared following the method as described in Example 2. The prepared lipid-nucleic acid mixture was orally administered at a dose of 100 μg lipid:1 nmol single-stranded small RNA PGY-sRNA-26 per mouse.
1) Blank group: Mice (n=4) were given 500 μl of normal saline by gavage, and this group served as a blank control group;
2) Free intake group: Mice (n=4) were given sRNA solution (1 nmol/animal, 500 μl) by direct gavage, and this group served as a negative control group;
3) Lipid treatment group: Mice (n=4) were given 500 μl of the lipid-nucleic acid mixture prepared in step 2 by gavage.
12 hrs after gavage in each group of mice, 500 μl of blood was taken from the eyeball, and 1.5 ml of Trizol Reagent LS (purchased from Invitrogen) was added and mixed well for lysis. The tissue sample was added with 3 ml of Trizol Reagent LS. and homogenized for full lysis, wherein the tissue sample included lung/kidney/spleen/heart/gut. 1 ml of blood or tissue lysate was taken and RNA was extracted according to the following steps.
The blood or tissue lysate was centrifuged at 4° C., and 12,000 rpm for 5 min, the pellet was discarded, and Trizol was transferred to a new centrifuge tube.
Chloroform was added in an amount of 200 μL chloroform/mL Trizol, shaken fully until uniform, and allowed to stand at room temperature for 5 min.
The sample was centrifuged at 4° C., and 12,000 rpm, for 15 min.
The upper aqueous phase was pipetted to another centrifuge tube, and isopropanol was added in an amount of 0.4 mL isopropanol/mL Trizol, mixed well, and allowed to stand at a low temperature for 10-20 min.
The sample was centrifuged at 4° C., and 12,000 rpm, for 15 min, the supernatant was discarded, and the RNA pellet was at the bottom of the tube.
1 mL of 75% ethanol was added, and the centrifuge tube was shaken gently, to suspend the pellet.
The sample was centrifuged at 4° C., and 12,000 rpm, for 10 min, the supernatant was discarded, 1 mL of 75% ethanol was added, and the centrifuge tube was shaken gently, to suspend the pellet.
The sample was centrifuged at 4° C., and 12,000 rpm, for 10 min, the supernatant was discarded, and the sample was air dried at room temperature. The RNA sample was dissolved in 50-100 μL of RNase-free H2O, and the RNA concentration was quantified by determining the OD value.
The sRNA was reversely transcribed into cDNA using a reverse transcription kit (High-Capacity cDNA Reverse Transcription Kits, Applied Biosystems, cat. no. 4368813), following the stem-loop method (see, for example Real-time quantification of microRNAs by stem-loop RT-PCR, Nucleic Acids Res. 2005 Nov. 27; 33(20):e179, incorporated herein by reference). System for reverse transcription: template RNA (200 ng/μL) 10 μL, 10×RT buffer 2.0 μL, 25×dNTP Mix (100 mM) 0.8 μL, U6 RT stem-loop primer 2.0 μL, PGY-sRNA-26 RT stem-loop primer 2.0 μL, MultiScribe™ reverse transcriptase 1.0 μL, RNAase inhibitor 1.0 μL, and nuclease-free water H2O 1.2 μL. […]

[1] = significant difference compared to the control, 100 μg lipid:1 nmol PGY-sRNA-26, 12 hrs

| Compound | oral delivery of sRNA single-chain nucleic acid into the blood, and lung, kidney, spleen, and heart tissues of mice | oral delivery of sRNA single-stranded nucleic acid into the spleen tissue of mice [1] | oral delivery of sRNA single-chain nucleic acid into the blood, and lung, kidney, spleen, heart, and intestinal tissue of mice | also measured |
| --- | --- | --- | --- | --- |
| 1,2-myristin-3-palmitin [Lipid 80] | can effectively orally deliver | can significantly efficiently orally deliver |  | number of organs into which nucleic acid is significantly delivered: two organs; oral delivery of sRNA single-stranded nucleic acid into the heart tissue of mice [1]: can significantly efficiently orally deliver |
| 1,2-stearin-3-olein [Lipid 77] | can effectively orally deliver | can significantly efficiently orally deliver |  |  |
| 1,3-palmitin-2-myristin [Lipid 76] | can effectively orally deliver | can significantly efficiently orally deliver |  | number of organs into which nucleic acid is significantly delivered: two organs; oral delivery of sRNA single-stranded nucleic acid into the lung tissue of mice [1]: can significantly efficiently orally deliver |
| 1-palmitoyl-2-oleoyl-sn-glycero-3-phospho-(1′-rac-glycerol) (sodium salt) [Lipid 88] |  |  | can effectively orally deliver | oral delivery of sRNA single-stranded nucleic acid into the kidney tissue of mice [1]: can significantly efficiently orally deliver |
| CCCCCCCC/C=C\CCCCCCCC(=O)OC[C@H](COP(=O)(O)OCCN)OC(=O)CCCCCCC/C=C\CCCCCCCC [Lipid 72, 1,2-dioleoyl-sn-glycero-3-phosphatidylethanolamine] | can effectively orally deliver |  |  | oral delivery of sRNA single-stranded nucleic acid into the lung tissue of mice [1]: can significantly efficiently orally deliver |
| CCCCCCCCC=CCCCCCCCC(=O)OCC(COC(=O)CCCCCCCCCCCCCCCCCCC)OC(=O)CCCCCCCC=CCCCCCCCC (stereo not shown) [Lipid 78, 1,2-olein-3-arachidin] | can effectively orally deliver |  |  |  |
| CCCCCCCCC=CCCCCCCCC(=O)OCC(COC(=O)CCCCCCCCCCCCCCCCCCCCC)OC(=O)CCCCCCCC=CCCCCCCCC (stereo not shown) [Lipid 79, 1,2-olein-3-behenin] | can effectively orally deliver | can significantly efficiently orally deliver |  |  |
| CCCCCCCC/C=C\CCCCCCCC(=O)OC[C@H](COP(=O)([O-])OCC(O)CO)OC(=O)CCCCCCC/C=C\CCCCCCCC.[Na+] (stereo partly shown) [Lipid 81, 1,2-dioleoyl-sn-glycero-3-phosphatidylglycerol sodium salt] | can effectively orally deliver | can significantly efficiently orally deliver |  |  |
| COC1=C(OC)C(=O)C(C/C=C(\C)CC/C=C(\C)CC/C=C(\C)CC/C=C(\C)CC/C=C(\C)CC/C=C(\C)CC/C=C(\C)CC/C=C(\C)CC/C=C(\C)CCC=C(C)C)=C(C)C1=O [Lipid 82, Q-10, Ubiquinone 50, Ubiquinone 10] |  |  | can effectively orally deliver |  |
| CCCCCCCCCCCCCCCCOC[C@H](COP(=O)([O-])OCC[N+](C)(C)C)OC(C)=O [Lipid 84, β-acetyl-γ-O-hexadecyl-L-α-phosphatidylcholine hydrate] |  |  | can effectively orally deliver |  |
| CCCCCCCCCCCCCCCCOC[C@H](COP(=O)([O-])OCC[N+](C)(C)C)OC(C)=O [Lipid 85, β-acetyl-γ-O-alkyl-L-α-phosphatidylcholine] |  |  | can effectively orally deliver |  |
| CCCCCCCC/C=C\CCCCCCCC(=O)O[C@H](COC(=O)CCCCCCCCCCCCCCC)COP(=O)([O-])OCC[N+](C)(C)C [Lipid 86, 1-palmitoyl-2-oleoyl-sn-glycero-3-phosphocholine] |  |  | can effectively orally deliver |  |
| CCCCCCCC/C=C\CCCCCCCC(=O)O[C@H](COC(=O)CCCCCCCCCCCCCCCCC)COP(=O)([O-])OCC[N+](C)(C)C [Lipid 87, 1-stearoyl-2-oleoyl-sn-glycero-3-phosphocholine] |  |  | can effectively orally deliver |  |
| CCCCCCCC/C=C\CCCCCCCCCCCCCC(=O)N[C@@H](CO)[C@H](O)/C=C/CCCCCCCCCCCCC [Lipid 91, N-nervonoyl-D-erythro-sphingosine] |  |  | can effectively orally deliver | oral delivery of sRNA single-stranded nucleic acid into the kidney tissue of mice [1]: can significantly efficiently orally deliver |
| CCCCCCCCCCCCCCCCC/C=C/[C@@H](O)[C@@H](N)CO [Lipid 97, D-erythro-sphingosine (C22 group)] |  |  | can effectively orally deliver | number of organs into which nucleic acid is significantly delivered: two organs; oral delivery of sRNA single-stranded nucleic acid into the kidney tissue of mice [1]: can significantly efficiently orally deliver; oral delivery of sRNA single-stranded nucleic acid into the lung tissue of mice [1]: can significantly efficiently orally deliver |
| CCCCCCCCCCCCC/C=C/[C@@H](O)[C@@H](N)CO [Lipid 98, D-erythro-sphingosine] |  | can significantly efficiently orally deliver | can effectively orally deliver | overall nucleic acid delivery performance among the lipids (across the 6 organs in the experiments): most significant delivery performance; oral delivery of sRNA single-stranded nucleic acid into the kidney tissue of mice [1]: can significantly efficiently orally deliver; oral delivery of sRNA single-stranded nucleic acid into the lung tissue of mice [1]: can significantly efficiently orally deliver |
| CCCCCCCCC/C=C/[C@@H](O)[C@@H](N)CO [Lipid 99, D-erythro-sphingosine (C14 group)] |  | can significantly efficiently orally deliver | can effectively orally deliver |  |
| CCCCCCCCCCC/C=C/[C@@H](O)[C@@H](N)CO [Lipid 100, D-erythro-sphingosine (C16 group)] |  | can significantly efficiently orally deliver | can effectively orally deliver |  |
| CCCCC/C=C\C/C=C\CCCCCCCC(=O)OC[C@H](COP(=O)([O-])OCC[N+](C)(C)C)OC(=O)CCCCCCC/C=C\C/C=C\CCCCC [Lipid 107, 1,2-dilinoleoyl-sn-glycero-3-phosphocholine] |  |  | can effectively orally deliver |  |
